The results in this text go back to ChEMBL document CHEMBL3526141, “Characterization of human liver enzymes involved in the biotransformation of boceprevir, a hepatitis C virus protease inhibitor” (Drug Metab Dispos, 2011).

As usually defined, the Km is the concentration of substrate that gives half-maximal velocity.

Molecules are shown by their SMILES.

Series [1] deals with T1, Aldo-keto reductase family 1 member C3 (Homo sapiens, UniProt P42330).
T1 sequence (P42330 whole entry): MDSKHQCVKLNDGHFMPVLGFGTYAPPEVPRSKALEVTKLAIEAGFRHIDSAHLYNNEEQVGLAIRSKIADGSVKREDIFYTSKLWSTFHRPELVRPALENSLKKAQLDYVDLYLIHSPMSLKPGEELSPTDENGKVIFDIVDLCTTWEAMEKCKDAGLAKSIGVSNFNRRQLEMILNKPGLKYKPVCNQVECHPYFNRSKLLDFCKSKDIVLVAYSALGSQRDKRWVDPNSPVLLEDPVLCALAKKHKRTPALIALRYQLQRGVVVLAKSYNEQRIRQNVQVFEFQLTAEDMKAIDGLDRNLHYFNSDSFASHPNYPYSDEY
The series is described as follows: Drug metabolism in human recombinant […] HEK293 cells treated with 20 uM boceprevir assessed as 1 mM BNPP-mediated inhibition of AKR1C3-mediated metabolite formation after 120 mins in presence of NADPH by LC-MS/MS/FSA method. The series is classed as ADME, cell-based. On the set-up: interact cpd dose 1 mM. The following applies: hek293, 2 h.

For series [2], the target named is T2, Aldo-keto reductase family 1 member C2 (Homo sapiens, UniProt P52895).
T2 sequence (P52895 whole entry): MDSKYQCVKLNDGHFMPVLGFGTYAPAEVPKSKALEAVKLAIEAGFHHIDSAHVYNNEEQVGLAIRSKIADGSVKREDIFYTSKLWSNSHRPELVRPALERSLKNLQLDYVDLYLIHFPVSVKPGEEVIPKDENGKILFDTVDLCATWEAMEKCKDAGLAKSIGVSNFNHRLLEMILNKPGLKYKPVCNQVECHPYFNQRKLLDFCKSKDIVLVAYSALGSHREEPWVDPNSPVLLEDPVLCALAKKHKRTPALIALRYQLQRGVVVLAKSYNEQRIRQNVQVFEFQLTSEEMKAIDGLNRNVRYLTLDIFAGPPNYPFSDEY
The experiment in a line: Drug metabolism in human recombinant AKR1C2 expressing HEK293 cells treated with 20 uM boceprevir assessed as 1 mM ibuprofen-mediated inhibition of AKR1C2-mediated metabolite formation after 120 mins in presence of NADPH by LC-MS/MS/FSA method. The format is ADME, cell-based. On the set-up: interact cpd dose 1 mM. The following applies: hek293, 2 h.

Series [3] relates to Liver cytosol. The experiment in a line: Drug metabolism in human liver cytosol treated with 20 uM assessed as compound formation in presence of NADPH generating system by LC-MS/MS/FSA method. The format is ADME.
The target in series [4] is T2, Aldo-keto reductase family 1 member C2. The experiment in a line: Drug metabolism in human recombinant AKR1C2 expressing HEK293 cells treated with 20 uM boceprevir assessed as 1 mM BNPP-mediated inhibition of AKR1C2-mediated metabolite formation after 120 mins in presence of NADPH by LC-MS/MS/FSA method. The series is classed as ADME, cell-based. On the set-up: interact cpd dose 1 mM. To be noted: hek293, 2 h.

Series [5] has as its system Liver cytosol. The series is described as follows: Drug metabolism in human liver cytosol at 20 uM assessed as (1R,2S,5S)-N-((2R,3R)-4-amino-1-cyclobutyl-3-hydroxy-4-oxobutan-2-yl)-3-((S)-2-(3-tert-butylureido)-3,3-dimethylbutanoyl)-6,6-dimethyl-3-azabicyclo[3.1.0]hexane-2-carboxamide formation in presence of flufenamic acid by LC-MS/MS/FSA method. The format is ADME.

The test system of series [6] is Liver cytosol. The experiment in a line: Drug metabolism in human liver cytosol at 20 uM assessed as (1R,2S,5S)-N-((2R,3R)-4-amino-1-cyclobutyl-3-hydroxy-4-oxobutan-2-yl)-3-((S)-2-(3-tert-butylureido)-3,3-dimethylbutanoyl)-6,6-dimethyl-3-azabicyclo[3.1.0]hexane-2-carboxamide formation at 20 uM after 60 mins in presence of AKR inhibitor ibuprofen by LC-MS/MS/FSA method. The format is ADME. To be noted: 1 h.

Series [7] has as its system Liver cytosol. The series is described as follows: Drug metabolism in human liver cytosol assessed as (1R,2S,5S)-N-((2R,3R)-4-amino-1-cyclobutyl-3-hydroxy-4-oxobutan-2-yl)-3-((S)-2-(3-tert-butylureido)-3,3-dimethylbutanoyl)-6,6-dimethyl-3-azabicyclo[3.1.0]hexane-2-carboxamide formation after 60 mins by LC-MS/MS/FSA method. The format is ADME, tissue-based. To be noted: 1 h.

Series [8] addresses T1, Aldo-keto reductase family 1 member C3. The series is described as follows: Activity of human recombinant AKR1C3 expressed in HEK293 cells assessed as ratio of Vmax to Km for (1R,2S,5S)-N-((2S,3R)-4-amino-1-cyclobutyl-3-hydroxy-4-oxobutan-2-yl)-3-((S)-2-(3-tert-butylureido)-3,3-dimethylbutanoyl)-6,6-dimethyl-3-azabicyclo[3.1.0]hexane-2-carboxamide formation per mg protein after 120 mins in presence of NADPH by LC-MS/MS/FSA method. To be noted: hek293, 2 h. The format is ADME, cell-based.

Series [9] can be described thus: Drug metabolism in human liver S9 fraction at 20 uM assessed as (1R,2S,5S)-N-((2S,3R)-4-amino-1-cyclobutyl-3-hydroxy-4-oxobutan-2-yl)-3-((S)-2-(3-tert-butylureido)-3,3-dimethylbutanoyl)-6,6-dimethyl-3-azabicyclo[3.1.0]hexane-2-carboxamide formation in presence of BNPP by LC-MS/MS/FSA method. The series is classed as ADME, subcellular. The following applies: s9, 20 µM.

Series [10] can be described thus: Drug metabolism in human liver S9 fraction at 20 uM assessed as (1R,2S,5S)-N-((2S,3R)-4-amino-1-cyclobutyl-3-hydroxy-4-oxobutan-2-yl)-3-((S)-2-(3-tert-butylureido)-3,3-dimethylbutanoyl)-6,6-dimethyl-3-azabicyclo[3.1.0]hexane-2-carboxamide formation in presence of menadione by LC-MS/MS/FSA method. The format is ADME, subcellular. The following applies: s9, 20 µM.

Series [11] has as its system Liver cytosol. The series is described as follows: Drug metabolism in human liver cytosol at 20 uM assessed as (1R,2S,5S)-N-((2S,3R)-4-amino-1-cyclobutyl-3-hydroxy-4-oxobutan-2-yl)-3-((S)-2-(3-tert-butylureido)-3,3-dimethylbutanoyl)-6,6-dimethyl-3-azabicyclo[3.1.0]hexane-2-carboxamide formation in presence of pargyline by LC-MS/MS/FSA method. The series is classed as ADME.

Series [12] is described as follows: Drug excretion in human urine. The format is ADME. On the set-up: dosed compound name [14C]boceprevir.
Series [13] deals with Liver cytosol. The series is described as follows: Drug metabolism in human liver cytosol at 20 uM assessed as (1R,2S,5S)-N-((2S,3R)-4-amino-1-cyclobutyl-3-hydroxy-4-oxobutan-2-yl)-3-((S)-2-(3-tert-butylureido)-3,3-dimethylbutanoyl)-6,6-dimethyl-3-azabicyclo[3.1.0]hexane-2-carboxamide formation at 20 uM after 60 mins in presence of AKR inhibitor diazepam by LC-MS/MS/FSA method. The series is classed as ADME. To be noted: 1 h.

Series [14] deals with Liver cytosol. The series is described as follows: Drug metabolism in human liver cytosol at 20 uM assessed as (1R,2S,5S)-N-((2S,3R)-4-amino-1-cyclobutyl-3-hydroxy-4-oxobutan-2-yl)-3-((S)-2-(3-tert-butylureido)-3,3-dimethylbutanoyl)-6,6-dimethyl-3-azabicyclo[3.1.0]hexane-2-carboxamide formation at 20 uM after 60 mins in presence of AKR inhibitor diflunisal by LC-MS/MS/FSA method. The series is classed as ADME. The following applies: 1 h.

Series [15] concerns the target T1, Aldo-keto reductase family 1 member C3. The experiment in a line: Activity of human recombinant AKR1C3 expressed in HEK293 cells assessed as (1R,2S,5S)-N-((2S,3R)-4-amino-1-cyclobutyl-3-hydroxy-4-oxobutan-2-yl)-3-((S)-2-(3-tert-butylureido)-3,3-dimethylbutanoyl)-6,6-dimethyl-3-azabicyclo[3.1.0]hexane-2-carboxamide formation after 120 mins in presence of NADPH by LC-MS/MS/FSA method. The format is ADME, cell-based. To be noted: hek293, 2 h.

Series [16] has as its system Liver cytosol. The series is described as follows: Drug metabolism in human liver cytosol at 20 uM assessed as (1R,2S,5S)-N-((2S,3R)-4-amino-1-cyclobutyl-3-hydroxy-4-oxobutan-2-yl)-3-((S)-2-(3-tert-butylureido)-3,3-dimethylbutanoyl)-6,6-dimethyl-3-azabicyclo[3.1.0]hexane-2-carboxamide formation in presence of menadione by LC-MS/MS/FSA method. The series is classed as ADME.

As for `CC(C)(C)NC(=O)N[C@H](C(=O)N1C[C@H]2[C@@H]([C@H]1C(=O)N[C@@H](CC1CCC1)[C@@H](O)C(N)=O)C2(C)C)C(C)(C)C`, the “inhibition (INH)” value in series [1] is reported as 69%; in [2], over 89%; in [4], 82%. Moreover, in series [3], the Compound recovery turned out to be 68%.

With `CC(C)(C)NC(=O)N[C@H](C(=O)N1C[C@H]2[C@@H]([C@H]1C(=O)N[C@H](CC1CCC1)C(=O)C(N)=O)C2(C)C)C(C)(C)C`, the Compound recovery result in series [5] and in [6] was “metabolite_not_detected” each time. In addition, in series [7], the Km is 27.4 µM.

As for `CC(C)(C)NC(=O)N[C@H](C(=O)N1C[C@H]2[C@@H]([C@H]1C(=O)NC(CC1CCC1)C(=O)C(N)=O)C2(C)C)C(C)(C)C` (stereo partly specified) [BOCEPREVIR], the Vmax/Km in series [8] is 14.67 µL/min. For the same compound, the Compound recovery entry is given as “metabolite_not_detected” in [9]; “metabolite_not_detected” in series [10]; “metabolite_detected” in series [11]; “metabolite_not_detected” in series [13]; “metabolite_not_detected” in series [14]; “metabolite_not_detected” in [16]. This compound registered a Radiolabel recovery in series [12] of 9.3%. Besides, the Michaelis-Menten constant (Km) in [15] was determined as 43.5 µM.
